The source of these data is patent US6518303B2, “2-phenylpyran-4-one derivatives” (Almirall Prodesfarma S.A., priority 1999, dated 2003).

The target of one series is T1, COX-2 (Homo sapiens, UniProt P35354).
T1 construct: incubated in the presence of LPS (10 μg/ml) for 24 h at 37° C. in order to induce The COX-2 expression; endogenous in cells; host or cells: fresh heparinized human whole blood, COX-2 induced with LPS for 24 h
T1 sequence (P35354 18-604): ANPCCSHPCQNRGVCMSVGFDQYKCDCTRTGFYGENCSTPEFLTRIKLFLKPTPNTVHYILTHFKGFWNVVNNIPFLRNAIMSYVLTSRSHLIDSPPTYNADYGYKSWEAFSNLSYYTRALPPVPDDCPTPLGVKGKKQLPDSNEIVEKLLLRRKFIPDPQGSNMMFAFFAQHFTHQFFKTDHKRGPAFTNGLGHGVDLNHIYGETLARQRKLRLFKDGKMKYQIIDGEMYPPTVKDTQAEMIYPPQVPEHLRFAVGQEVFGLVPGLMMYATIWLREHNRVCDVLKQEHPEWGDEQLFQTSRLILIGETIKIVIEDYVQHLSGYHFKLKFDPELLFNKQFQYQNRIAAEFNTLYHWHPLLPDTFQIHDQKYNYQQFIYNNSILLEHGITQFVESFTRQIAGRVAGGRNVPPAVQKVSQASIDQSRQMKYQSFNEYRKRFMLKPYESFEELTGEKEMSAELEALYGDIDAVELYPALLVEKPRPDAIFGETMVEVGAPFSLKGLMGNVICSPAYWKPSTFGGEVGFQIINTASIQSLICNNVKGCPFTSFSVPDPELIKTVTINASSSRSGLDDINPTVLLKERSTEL
Briefly: COX-2 activity in human whole blood (PGE2, LPS-induced). In kind it is cell-based. The note with it: for IC50: human whole blood, LPS 10 μg/ml 24 h at 37° C., PGE2 ELISA; for Ratio COX-1/COX-2: ratio of whole blood IC50 values. The method, then:
Plasma was separated by centrifugation (10 min at 13000 rpm.) and kept at −30° C. until PGE2 levels were measured using an enzyme immunoassay kit (ELISA). The effects of inhibitors were studied by incubating each compound (5 μl aliquots) at five to six different concentrations with triplicate determinations in the presence of LPS for 24 hours. IC50 values were obtained by non-linear regression using InPlot, GraphPad software on an IBM computer.

The target in another series is T2, COX-1 (Homo sapiens, UniProt P23219).
T2 construct: Fresh blood from healthy volunteers; endogenous in cells; host or cells: fresh heparinized human whole blood stimulated with calcium ionophore A23187
Briefly: COX-1 activity in human whole blood (TXB2, calcium ionophore A23187). In kind it is cell-based. Conditions: 1 h at 37° C., TXB2 ELISA. The procedure: For the COX-1 activity determination, 500 μl aliquots of blood were incubated with either 5 μl vehicle (dimethylsulphoxide) or 5 μl of a test compound for 1 h at 37° C. […] Plasma was separated by centrifugation (10 min at 13000 rpm) and kept at −30° C. until TXB2 levels were measured using an enzyme immunoassay kit (ELISA). The effect of the compounds were evaluated by incubating each compound at five to six different concentrations with triplicate determinations. IC50 values were obtained by non-linear regression using InPlot, GraphPad software on an IBM computer.
Background: ELISA stands for enzyme-linked immunosorbent assay.

For series [1], the system named is adjuvant arthritis (hind paw volume) in male Wistar rats. Briefly: Anti-inflammatory activity (adjuvant arthritis). The note with it: dose 1 mg/kg p.o. once daily for 7 days (days 14-20), measured day 21. In kind it is in vivo, rat.
Series [2] has as its system intestinal ulcers and hematocrit in male Wistar rats. Description: Ulcerogenic activity. In kind it is in vivo, rat. Also on record: key to Lesion index PU (perforated ulcers) / Lesion index NPU (non-perforated ulcers): 0:no ulcers; 1:<10 ulcers; 2:10-25 ulcers; 3:>25 ulcers. The note with it: for Lesion index NPU (non-perforated ulcers) / Lesion index PU (perforated ulcers): index 0 to 3. The method, then: Animals: Male Wistar rate (Interfauna, U.K., Ltd.) weighing about 150-175 g were used. Animals were maintained on a 12:12 hour light-dark cycle (lights on at 7:00 am) at room temperature (22±1° C.). Food and water were allowed ad libitum.
Procedure: The compounds were administered by the oral route once a day for 4 consecutive days. The body weight of each rat was assessed every day before drug administration. The animals were anesthesized 24 h after the last dosing and 1 ml of blood was extracted by cardiac puncture using heparin (10 U/ml) as anticoagulant. The percentage of hematocrit was measured. The intestines were removed, opened longitudinally and gently washed. The macroscopic severity of the intestinal erosions was assessed using a parametric scale, evaluating the number of the perforated and non-perforated intestinal ulcers by means of a lesion index ranging from 0 to 3 (0:no ulcers, 1:<10 ulcers, 2:10-25 ulcers to 3:>25 ulcers). No gastric ulcers are observed using this protocol.
The treatments were randomized in each experiment. The results were compared with those obtained in the vehicle-treated group using the ANOVA test.

Setting [3] is: dose 100 mg/kg oral once a day for 4 days.
The mark [4] stands for this setting: dose 10 mg/kg oral once a day for 4 days.

T2 sequence (P23219 24-599): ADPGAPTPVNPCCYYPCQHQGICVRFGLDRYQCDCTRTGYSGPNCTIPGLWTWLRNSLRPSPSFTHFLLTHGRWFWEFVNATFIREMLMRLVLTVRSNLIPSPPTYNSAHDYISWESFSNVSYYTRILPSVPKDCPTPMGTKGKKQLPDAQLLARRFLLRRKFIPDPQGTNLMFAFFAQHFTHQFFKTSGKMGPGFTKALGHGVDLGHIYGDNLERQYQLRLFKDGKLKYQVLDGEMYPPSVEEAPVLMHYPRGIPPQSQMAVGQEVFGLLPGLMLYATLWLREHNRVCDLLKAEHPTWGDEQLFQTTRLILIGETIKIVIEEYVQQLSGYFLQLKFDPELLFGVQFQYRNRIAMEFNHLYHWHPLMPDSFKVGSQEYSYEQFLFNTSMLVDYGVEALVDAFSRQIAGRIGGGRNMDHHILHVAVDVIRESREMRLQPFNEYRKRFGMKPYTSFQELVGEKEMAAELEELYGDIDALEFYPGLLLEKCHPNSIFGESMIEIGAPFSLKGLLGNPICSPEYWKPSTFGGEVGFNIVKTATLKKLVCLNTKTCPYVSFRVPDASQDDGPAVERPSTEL

By melting point is commonly meant the temperature, or range, at which the solid turns liquid. As usually defined, the IC50 is the point on the concentration scale where inhibition reaches its midpoint. In turn, `Cc1cc(=O)c(-c2ccccc2F)c(-c2ccc(S(C)(=O)=O)cc2)o1` [Compound 4, 3-(2-fluorophenyl)-2-(4-methanesulfonylphenyl)-6-methylpyran-4-one] gave a melting point of 136 to 137 °C. For the same compound, at COX-2, the IC50 is 1.5 µM and the “Ratio COX-1/COX-2” value was above 66. For the same compound, the IC50 at COX-1 is above 100 µM.
As for `Cc1cc(=O)c(-c2ccc(Cl)cc2)c(-c2ccc(S(C)(=O)=O)cc2)o1` [Compound 5, 3-(4-chlorophenyl)-2-(4-methanesulfonylphenyl)-6-methylpyran-4-one], the melting point came out at 182 °C. In addition, the “% Inhibition of inflammation (paw volume)” value (shortened to “% Inhibition of inflammation”) in series [1] is 50 (1) %. Besides, in series [2] (setting [3]), the Hematocrit worked out at 44.1 ± 0.7%, the “Lesion index NPU (non-perforated ulcers)” value is on record as 0 and the “Lesion index PU (perforated ulcers)” value is on record as 0. Besides, at COX-2, the IC50 was determined as 2.1 µM and the “Ratio COX-1/COX-2” value is on record as above 47. For the same compound, the IC50 on COX-1 was above 100 µM.
`Cc1cc(=O)c(-c2ccc(Br)cc2)c(-c2ccc(S(C)(=O)=O)cc2)o1` [Compound 8, 3-(4-bromophenyl)-2-(4-methanesulfonylphenyl)-6-methylpyran-4-one] displayed a melting point of 198 °C. On COX-2, inhibition was half-maximal at 1.7 µM (IC50) and the “Ratio COX-1/COX-2” value is above 58. The IC50 on COX-1 was above 100 µM.
Compound `Cc1cc(=O)c(-c2ccc(Cl)c(Cl)c2)c(-c2ccc(S(C)(=O)=O)cc2)o1` [Compound 22, 3-(3,4-dichlorophenyl)-2-(4-methanesulfonylphenyl)-6-methylpyran-4-one] yielded a melting point of 156 °C. Further, the “% Inhibition of inflammation” value in series [1] is 69 (1) %. The compound also came in with a Hematocrit in series [2] (setting [3]) of 44.4 ± 0.3%. On COX-1, the IC50 amounted to 37.1 µM.
For the compound `COc1ccc(-c2c(-c3ccc(S(C)(=O)=O)cc3)oc(C)cc2=O)cc1Cl` [Compound 31], the melting point was 116 °C. Further, at COX-2, the IC50 was 1.67 µM and the “Ratio COX-1/COX-2” value is reported as above 59. Also, the IC50 at COX-1 is above 100 µM.
Taken in the same sequence, the figures for `Cc1cc(=O)c(Cc2ccccc2)c(-c2ccc(S(C)(=O)=O)cc2)o1` [Compound 37] were 137 °C, 1.08 µM, above 92 and above 100 µM.
In the case of `Cc1cc(=O)c(Oc2ccc(F)cc2)c(-c2ccc(S(C)(=O)=O)cc2)o1` [Compound 39, 3-(4-fluorophenoxy)-2-(4-methanesulfonylphenyl)-6-methylpyran-4-one], the melting point was found to be 189 °C. Further, the “% Inhibition of inflammation” value in series [1] was 75 (1) %. In series [2] (setting [3]), the Hematocrit is given as 43.7 ± 0.4%, the “Lesion index NPU (non-perforated ulcers)” value is listed as 0 and the “Lesion index PU (perforated ulcers)” value is reported as 0. Further, at COX-2, the IC50 was 0.96 µM and the “Ratio COX-1/COX-2” value is on record as above 104. Further, the IC50 at COX-1 is above 100 µM.
`Cc1cc(=O)c(Oc2ccc(Cl)cc2)c(-c2ccc(S(C)(=O)=O)cc2)o1` [Compound 41]: the “% Inhibition of inflammation” value in series [1] was 71 (1) %. In series [2] (setting [3]), the Hematocrit is given as 43.4 ± 1.9%, the “Lesion index NPU (non-perforated ulcers)” value is on record as 0 and the “Lesion index PU (perforated ulcers)” value is 0. For the same compound, at COX-2, the IC50 worked out at 0.35 µM and the “Ratio COX-1/COX-2” value is reported as above 285. On COX-1, the IC50 is above 100 µM.
In turn, `Cc1cc(=O)c(Oc2ccc(Br)cc2)c(-c2ccc(S(C)(=O)=O)cc2)o1` [Compound 43, 3-(4-bromophenoxy)-2-(4-methanesulfonylphenyl)-6-methylpyran-4-one] showed a melting point of 188 °C. At COX-2, the IC50 amounted to 0.8 µM and the “Ratio COX-1/COX-2” value worked out at 125. Also, the half-inhibitory concentration (IC50) on COX-1 was above 100 µM.
In turn, `Cc1cc(=O)c(Oc2ccc(F)cc2F)c(-c2ccc(S(C)(=O)=O)cc2)o1` [Compound 45, 3-(2,4-difluorophenoxy)-2-(4-methanesulfonylphenyl)-6-methylpyran-4-one] gave a melting point of 191 °C. For the same compound, the “% Inhibition of inflammation” value in series [1] was 74 (1) %. Also, in series [2] (setting [3]), the Hematocrit amounted to 44.4 ± 0.9%, the “Lesion index NPU (non-perforated ulcers)” value is listed as 0 and the “Lesion index PU (perforated ulcers)” value stood at 0. For the same compound, at COX-2, the IC50 was 0.15 µM and the “Ratio COX-1/COX-2” value amounted to 147. The IC50 at COX-1 stood at 22 µM.
Compound `Cc1cc(=O)c(Oc2cc(F)ccc2F)c(-c2ccc(S(C)(=O)=O)cc2)o1` [Compound 47, 3-(2,5-difluorophenoxy)-2-(4-methanesulfonylphenyl)-6-methylpyran-4-one] came in with a melting point of 189 °C. Also, on COX-2, the midpoint of inhibition, the IC50, lay at 0.8 µM and the “Ratio COX-1/COX-2” value was 71. In addition, the IC50 at COX-1 amounted to 57.1 µM.
Taken in the same sequence, the figures for `CS(=O)(=O)c1ccc(-c2oc(C(F)F)cc(=O)c2-c2ccc(Cl)cc2)cc1` [Compound 67, 3-(4-chlorophenyl)-6-difluoromethyl-2-(4-methanesulfonylphenyl)pyran-4-one] were 168 to 170 °C, 2.1 µM, above 47 and above 100 µM.
Turning to `COc1ccc2c(c1)c(CC(=O)O)c(C)n2C(=O)c1ccc(Cl)cc1` [Indomethacin, 1-(4-chlorobenzoyl)-5-methoxy-2-methylindole-3-acetic acid, reference compound], the “% Inhibition of inflammation” value in series [1] is recorded as 64 (1) %. In series [2] (setting [4]), the Hematocrit came to 22.7 ± 1.6%, the “Lesion index NPU (non-perforated ulcers)” value is 3 (3:>25 ulcers) and the “Lesion index PU (perforated ulcers)” value is on record as 3 (3:>25 ulcers).
